The subject of experiment [1] is BV2 cells. Description: iNOS and COX-2 expression after LPS (Western blot). Type of experiment: cell-based. The settings on record: 3 h pretreatment (Table 3 amounts), LPS 1 μg/ml 24 h. Here is the method:
(§1) RAW264.7 cells or BV2 cells (5×10^5 cells/well) were dispensed in DMEM containing 10% heat-inactivated FBS, 10 IU/mL penicillin G, 100 μg/mL streptomycin and 2 mM L-glutamine and cultured in a 5% CO2 incubator at a temperature of 37° C.
(§2) The compound of Formula III-3, III-4, V-3, III-1, IV-1, V-1, IV-2, V-2 or II-2 was added to the RAW264.7 cells or BV2 cells, and the toxicities of the compounds were determined by MTT assay.
(§3) The pretreated cells of Experimental Example 4-1 were treated with 1 μg/ml of LPS for 24 hours, and then the expression levels of iNOS and COX-2 were observed through Western blot, and the production of NO and PGE2 was measured.

The test system of experiment [2] is RAW264.7 cells. The experiment can be described thus: iNOS and COX-2 expression after LPS (Western blot). The settings on record: 3 h pretreatment (Table 3 amounts), LPS 1 μg/ml 24 h. The class given is cell-based. Here is the method:
as §1, §2, §3

Experiment [3] has as its target T1, rePON1 (PON1, paraoxonase 1) (Homo sapiens, UniProt P27169).
T1 construct: purchased Thermo Corp. RP-75678
The experiment can be described thus: Prevention of inhibition of PON1 activity by oxidized linolenic acid (TBBL substrate). The settings on record: for extent to which inhibition of rePON1 activity was prevented, compared with glabridin: compound 30 μM vs glabridin 30 μM; for extent to which inhibition of rePON1 activity was prevented, compared with glabridin / inhibition of rePON1 activity by oxidized linolenic acid: result in words; for inhibition of rePON1 activity by oxidized linolenic acid: compound 30 μM; for activity at 30 µM: 30 μM compound with rePON1 30 min, then oxidized linolenic acid 2 h, TBBL substrate, normal control 100, negative control 73.64. The class given is biochemical. Here is the method: Based on the fact that the activity of PON1 is inhibited when PON1 is treated with oxidized linolenic acid, an experiment was conducted to confirm the prevention of inhibition of PON1 activity. The activity of PON1 was measured using TBBL (5-thiobutyl butyrolactones) as a substrate.
Specifically, after 9.6 μl of 50 mM Tris-HCl containing 1 mM CaCl2 was added to each of […] Eppendorf tubes, 0.2 μl of each of the compounds of Formulas III-1, IV-1, V-1, IV-2, V-2, II-1, IV-3, V-3, III-2, IV-4, V-4, II-2 and III-3 and glabridine was added to each tube so that the concentration thereof was 30 μM. 0.2 μl of rePON1 (RP-75678, Thermo Corp.) was added to each of the 12 tubes and mixed. Thereafter, each of the mixtures was allowed to react at room temperature for 30 minutes, and 0.5 μl of 1 mM oxidized linolenic acid (OX-LA) dissolved in DMSO was added thereto in order to inhibit rePON1 activity, followed by reaction at room temperature for 2 hours, thus preparing solutions (I).
25 μl of 0.5 mM DTNB dissolved in 50 mM Tris-HCl containing 1 mM CaCl2 was dispensed into each well of a 384-well plate, and then 10 μl of each of the solutions (I) was dispensed into each well, and 20 μl of 2 mM TBBL dissolved in 50 mM Tris-HCl containing 1 mM CaCl2 was added to each well, thus preparing samples. The absorbance of each of the samples at 420 nm was measured using a spectrometer (SpectraMax M2) at 37° C. every 2 minutes for 1 hour.
In addition, a negative control was prepared in the same manner as the above-described method, except that, for the preparation of a solution, 0.2 μl of DMSO was added instead of the compounds of Formulas III-1, IV-1, V-1, IV-2, V-2, II-1, IV-3, V-3, III-2, IV-4, V-4, II-2 and III-3 and glabridin. Furthermore, a normal control was prepared in the same manner as the above-described method, except that, for the preparation of a solution, 0.2 μl of DMSO was added instead of the above-described compounds and glabridin and that oxidized linolenic acid was not added. The absorbance of each of the negative control and the normal control was measured.
Using SoftMax Pro software, the activity of PON1 was calculated from the absorbance using the following Equation 1, and the results are shown in Table 1 below.
Activity=(absorbancesample−absorbanceblank)/(absorbancePON1−absorbanceblank)*100 [Equation 1]

Experiment [4] has as its system BV2 cells. The experiment can be described thus: Transcription of NF-κB protein (p65, p50) into nucleus after LPS (Western blot). The class given is cell-based. The settings on record: 3 h pretreatment (Table 3 amounts), LPS 1 μg/ml 1 h. Here is the method:
as §1, §2
(§4) The pretreated cells of Experimental Example 4-1 were treated with 1 μg/ml of LPS for 1 hour, and then the level of transcription of NF-κB protein into the nucleus of each of p65 and p50 was analyzed through Western blot.

Experiment [5] has as its system BV2 cells. The experiment can be described thus: NO and PGE2 production after LPS. The class given is cell-based. The settings on record: 3 h pretreatment (Table 3 amounts), LPS 1 μg/ml 24 h. Here is the method:
as §1, §2, §3

Experiment [6] deals with RAW264.7 cells. The experiment can be described thus: NO and PGE2 production after LPS. The class given is cell-based. The settings on record: 3 h pretreatment (Table 3 amounts), LPS 1 μg/ml 24 h. Here is the method: as §1, §2, §3
Experiment [7] deals with BV2 cells. The experiment can be described thus: IL-1β, IL-6 and TNF-α mRNA expression after LPS (RT-PCR). Type of experiment: cell-based. The settings on record: 3 h pretreatment (Table 3 amounts), LPS 1 μg/ml 6 h. Here is the method:
as §1, §2
(§5) The pretreated cells of Experimental Example 4-1 were treated with 1 μg/ml of LPS for 6 hours, and then the mRNA expression level of the cytokine IL-1β, IL-6 or TNF-α produced in the inflammatory response was analyzed using RT-PCR.

The test system of experiment [8] is RAW264.7 cells. The experiment is described as above. Type of experiment: cell-based. The settings on record: 3 h pretreatment (Table 3 amounts), LPS 1 μg/ml 6 h. Here is the method: as §1, §2, §5
Experiment [9] deals with RAW264.7 cells. The experiment can be described thus: Transcription of NF-κB protein (p65, p50) into nucleus after LPS (Western blot). The settings on record: 3 h pretreatment (Table 3 amounts), LPS 1 μg/ml 1 h. Type of experiment: cell-based. Here is the method: RAW264.7 cells or BV2 cells (5×10^5 cells/well) were dispensed in DMEM containing 10% heat-inactivated FBS, 10 IU/mL penicillin G, 100 μg/mL streptomycin and 2 mM L-glutamine and cultured in a 5% CO2 incubator at a temperature of 37° C. […]
as §4
On the technique in general: Immunoblotting shows a protein as a band on a membrane.

T1 sequence (P27169 whole entry): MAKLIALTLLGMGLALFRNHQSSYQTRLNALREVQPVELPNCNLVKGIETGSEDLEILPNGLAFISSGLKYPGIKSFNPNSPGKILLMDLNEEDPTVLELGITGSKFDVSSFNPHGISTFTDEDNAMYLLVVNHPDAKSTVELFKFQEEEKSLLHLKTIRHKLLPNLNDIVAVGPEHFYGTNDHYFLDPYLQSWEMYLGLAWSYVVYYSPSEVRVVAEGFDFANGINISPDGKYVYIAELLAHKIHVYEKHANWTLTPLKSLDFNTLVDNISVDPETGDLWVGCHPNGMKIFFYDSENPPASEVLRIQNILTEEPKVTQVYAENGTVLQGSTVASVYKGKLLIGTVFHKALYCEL

As for `CCc1ccc(C2COc3c(ccc4c3CCC(C)(C)O4)C2)c(O)c1` (centres unmarked) [Formula III-3, 2-(8,8-dimethyl-2,3,4,8,9,10-hexahydropyrano[2,3-f]chromen-3-yl)-5-ethylphenol], in [1], the “expression level of COX-2” value is given as “concentration-dependently decreased” and the “expression level of iNOS” value is listed as “concentration-dependently decreased”. In addition, in [2], the “expression level of COX-2” value is reported as “concentration-dependently decreased” and the “expression level of iNOS” value is recorded as “concentration-dependently decreased”. Also, in experiment [3], the “extent to which inhibition of rePON1 activity was prevented, compared with glabridin” value is “greater” and the “inhibition of rePON1 activity by oxidized linolenic acid” value (“inhibition … by oxidized linolenic acid” for short) is “prevented”. Besides, in experiment [4], the “level of transcription of NF-κB protein into the nucleus, p50” value (from here on “level of transcription … p50”) is recorded as “concentration-dependently decreased” and the “level of transcription of NF-κB protein into the nucleus, p65” value (“level of transcription … p65” for short) is recorded as “concentration-dependently decreased”. Also, in [5], the “production of NO” value is “concentration-dependently decreased” and the “production of PGE2” value is listed as “concentration-dependently decreased”. In experiment [6], the “production of NO” value is on record as “concentration-dependently decreased” and the “production of PGE2” value is on record as “concentration-dependently decreased”. In experiment [7], the “mRNA expression level of IL-1β” value is listed as “concentration-dependently decreased”, the “mRNA expression level of IL-6” value is “concentration-dependently decreased” and the “mRNA expression level of TNF-α” value is “concentration-dependently decreased”. In addition, in [8], the “mRNA expression level of IL-1β” value is on record as “concentration-dependently decreased”, the “mRNA expression level of IL-6” value is “concentration-dependently decreased” and the “mRNA expression level of TNF-α” value is listed as “concentration-dependently decreased”. In addition, in experiment [9], the “level of transcription … p50” value is given as “concentration-dependently decreased” and the “level of transcription … p65” value is “concentration-dependently decreased”.

Turning to `CCCOc1ccc([C@@H]2COc3c(ccc4c3CCC(C)(C)O4)C2)c(O)c1` [Formula IV-2, (R)-2-(8,8-dimethyl-2,3,4,8,9,10-hexahydropyrano[2,3-f]chromen-3-yl)-5-propoxyphenol], in experiment [1], the “expression level of COX-2” value is reported as “concentration-dependently decreased” and the “expression level of iNOS” value is given as “concentration-dependently decreased”. For the same compound, in experiment [2], the “expression level of COX-2” value is reported as “concentration-dependently decreased” and the “expression level of iNOS” value is recorded as “concentration-dependently decreased”. In experiment [3], the activity at 30 µM was found to be 93.5%; the “extent to which inhibition of rePON1 activity was prevented, compared with glabridin” value is given as “greater”; the “inhibition … by oxidized linolenic acid” value is given as “prevented”. Further, in experiment [4], the “level of transcription … p50” value is given as “concentration-dependently decreased” and the “level of transcription … p65” value is on record as “concentration-dependently decreased”. In experiment [5], the “production of NO” value is “concentration-dependently decreased” and the “production of PGE2” value was “concentration-dependently decreased”. Besides, in experiment [6], the “production of NO” value is given as “concentration-dependently decreased” and the “production of PGE2” value is “concentration-dependently decreased”. In experiment [7], the “mRNA expression level of IL-1β” value is “concentration-dependently decreased”, the “mRNA expression level of IL-6” value is on record as “concentration-dependently decreased” and the “mRNA expression level of TNF-α” value was “concentration-dependently decreased”. Further, in [8], the “mRNA expression level of IL-1β” value is recorded as “concentration-dependently decreased”, the “mRNA expression level of IL-6” value is reported as “concentration-dependently decreased” and the “mRNA expression level of TNF-α” value is “concentration-dependently decreased”. Further, in experiment [9], the “level of transcription … p50” value is “concentration-dependently decreased” and the “level of transcription … p65” value was “concentration-dependently decreased”.

As to `CCOc1ccc([C@@H]2COc3c(ccc4c3CCC(C)(C)O4)C2)c(O)c1` [Formula IV-1, (R)-2-(8,8-dimethyl-2,3,4,8,9,10-hexahydropyrano[2,3-f]chromen-3-yl)-5-ethoxyphenol], in experiment [1], the “expression level of COX-2” value is on record as “concentration-dependently decreased” and the “expression level of iNOS” value is reported as “concentration-dependently decreased”. For the same compound, in [2], the “expression level of COX-2” value is on record as “concentration-dependently decreased” and the “expression level of iNOS” value was “concentration-dependently decreased”. In [3], the activity at 30 µM turned out to be 95%; the “extent to which inhibition of rePON1 activity was prevented, compared with glabridin” value is reported as “greater”; the “inhibition … by oxidized linolenic acid” value is on record as “prevented”. In experiment [4], the “level of transcription … p50” value is reported as “concentration-dependently decreased” and the “level of transcription … p65” value is on record as “concentration-dependently decreased”. In experiment [5], the “production of NO” value was “concentration-dependently decreased” and the “production of PGE2” value was “concentration-dependently decreased”. In addition, in experiment [6], the “production of NO” value was “concentration-dependently decreased” and the “production of PGE2” value was “concentration-dependently decreased”. Also, in [7], the “mRNA expression level of IL-1β” value was “concentration-dependently decreased”, the “mRNA expression level of IL-6” value was “concentration-dependently decreased” and the “mRNA expression level of TNF-α” value is “concentration-dependently decreased”. Further, in [8], the “mRNA expression level of IL-1β” value is “concentration-dependently decreased”, the “mRNA expression level of IL-6” value was “concentration-dependently decreased” and the “mRNA expression level of TNF-α” value was “concentration-dependently decreased”. Further, in experiment [9], the “level of transcription … p50” value was “concentration-dependently decreased” and the “level of transcription … p65” value is reported as “concentration-dependently decreased”.
